Test results published in patent US11358952B2, “Substituted 4-aminoisoindoline-1,3-dione compounds, compositions thereof, and methods of treatment therewith” (Celgene Corporation, priority 2018, dated 2022).

System: SU-DHL-4 cell line
Experiment: SU-DHL-4 cell proliferation assay (Cell Titer-Glo viability)
Format: cell-based
Details: Homo sapiens; cell viability IC50 activity level, DLBCL cell line SU-DHL-4, 120 hours post-treatment; read-out: SU-DHL-4 Act
Procedure: SU-DHL-4 Cell Proliferation Assay.
The following is an example of an assay that can be used to determine the anti-proliferative activity of Isoindolinedione Compounds in a DLBCL cell line, for example, the SU-DHL-4 cell line (Deutsche Sammlung von Mikroorganismen and Zellkulturen GmbH [DSMZ]: catalogue number ACC-495) at 120 hours post-treatment. The seeding density for SU-DHL-4 can be optimized to ensure assay linearity in 1536-well plates.
Increasing concentrations of test compounds (0.5 nM to 10 μM) were spotted in a 20-point dilution fashion (unevenly spaced data points) via an acoustic dispenser (EDC ATS-100) into an empty 1536-well plate. The DMSO concentration was kept constant for a final assay concentration of 0.1% DMSO. Prior to testing, SU-DHL-4 cells were grown in RPMI-1640 (Roswell Park Memorial Institute—1640) medium with 10% FBS (fetal bovine serum: HyClone) and expanded in culture flasks to provide sufficient amounts of starting material. Cells were then diluted to 500 cells per well in a 5 μL volume, and added directly to the compound-spotted 1536-well plates. Cells were allowed to grow for 120 hours in 5% CO2 at 37° C. At the time when exposure of cells to compound began (to), initial viable cell number was assessed via Cell Titer-Glo® Luminescent Cell Viability Assay at a 1 vol:2 vol ratio according to manufacturer's instructions (Promega Corporation, Madison, Wis.) by quantifying the level of luminescence generated by adenosine-5′-triphosphate (ATP) present in viable cells. After 120 hours, cell viability of the treated cells was assessed via Cell Titer-Gb® and read for luminescence. All growth inhibition curves were processed and evaluated using Activity Base (IDBS, Alameda, Calif.). Cell viability IC50 values were calculated using a four parameter logistic model (sigmoidal dose-response model): y=(A+((B−A)/(1+((C/x)^D)))) wherein: A=YMin B=YMax C=EC50 D=Hill slope IC50=the concentration of the compound when Y=50% of DMSO control Y=cell viability measured as luminescence unit, and x=concentration of compound.

| IC50 [nM] | SMILES |
| --- | --- |
| < 200 | N#Cc1ccc(N2CCN(Cc3ccc(CNc4cccc5c4C(=O)N(C4CCC(=O)NC4=O)C5=O)cc3)CC2)c(F)c1 (stereo not shown) [Cpd 28, 4-(4-(4-((2-(2,6-dioxopiperidin-3-yl)-1,3-dioxoisoindolin-4-ylamino)methyl)benzyl)piperazin-1-yl)-3-fluorobenzonitrile] |
| 200 to 500 | N#Cc1ccc(N2CCN(Cc3ccc(CNc4cccc5c4C(=O)N(C4CCC(=O)NC4=O)C5=O)cc3)CC2)nc1 (stereo not shown) [Cpd 29, 6-(4-(4-((2-(2,6-dioxopiperidin-3-yl)-1,3-dioxoisoindolin-4-ylamino)methyl)benzyl)piperazin-1-yl)nicotinonitrile] |
| < 200 | O=C1CCC(N2C(=O)c3cccc(NCc4ccc(CN5CCN(c6ncccc6F)CC5)cc4)c3C2=O)C(=O)N1 (stereo not shown) [Cpd 30, 2-(2,6-dioxopiperidin-3-yl)-4-(4-((4-(3-fluoropyridin-2-yl)piperazin-1-yl)methyl)benzylamino)isoindoline-1,3-dione] |
| 200 to 500 | O=C1CCC(N2C(=O)c3cccc(NCc4ccc(CN5CCC(c6ccccn6)CC5)cc4)c3C2=O)C(=O)N1 (stereo not shown) [Cpd 31, 2-(2,6-dioxopiperidin-3-yl)-4-(4-((4-(pyridin-2-yl)piperidin-1-yl)methyl)benzylamino)isoindoline-1,3-dione] |
| 200 to 500 | O=C1CCC(N2C(=O)c3cccc(NCc4ccc(CN5CCN(c6ccc(F)cn6)CC5)cc4)c3C2=O)C(=O)N1 (stereo not shown) [Cpd 32, 2-(2,6-dioxopiperidin-3-yl)-4-(4-((4-(5-fluoropyridin-2-yl)piperazin-1-yl)methyl)benzylamino)isoindoline-1,3-dione] |
| 200 to 500 | C[C@@H]1CN(c2ccc(Cl)cc2)CCN1Cc1ccc(CNc2cccc3c2C(=O)N(C2CCC(=O)NC2=O)C3=O)cc1 (stereo partly drawn) [Cpd 33, 4-(4-(((R)-4-(4-chlorophenyl)-2-methylpiperazin-1-yl)methyl)benzylamino)-2-(2,6-dioxopiperidin-3-yl)isoindoline-1,3-dione] |
| 751 to 1000 | CC1(C)CN(c2ccc(Cl)cc2)CCN1Cc1ccc(CNc2cccc3c2C(=O)N(C2CCC(=O)NC2=O)C3=O)cc1 (stereo not shown) [Cpd 34, 4-(4-((4-(4-chlorophenyl)-2,2-dimethylpiperazin-1-yl)methyl)benzylamino)-2-(2,6-dioxopiperidin-3-yl)isoindoline-1,3-dione] |
| 200 to 500 | CC1(C)CCN(Cc2ccc(CNc3cccc4c3C(=O)N(C3CCC(=O)NC3=O)C4=O)cc2)CC1 (stereo not shown) [Cpd 36, 4-(4-((4,4-dimethylpiperidin-1-yl)methyl)benzylamino)-2-(2,6-dioxopiperidin-3-yl)isoindoline-1,3-dione] |
| < 200 | CC(C)(C)C1CCN(Cc2ccc(CNc3cccc4c3C(=O)N(C3CCC(=O)NC3=O)C4=O)cc2)CC1 (stereo not shown) [Cpd 37, 4-(4-((4-tert-butylpiperidin-1-yl)methyl)benzylamino)-2-(2,6-dioxopiperidin-3-yl)isoindoline-1,3-dione] |
| < 200 | O=C1CCC(N2C(=O)c3cccc(NCc4ccc(CN5CC6(CCCC6)C5)cc4)c3C2=O)C(=O)N1 (stereo not shown) [Cpd 39, 4-(4-(2-azaspiro[3.4]octan-2-ylmethyl)benzylamino)-2-(2,6-dioxopiperidin-3-yl)isoindoline-1,3-dione] |
| < 200 | Cc1cc(CNc2cccc3c2C(=O)N(C2CCC(=O)NC2=O)C3=O)ccc1CN1CCC(C(C)C)CC1 (stereo not shown) [Cpd 40, 2-(2,6-dioxopiperidin-3-yl)-4-(4-((4-isopropylpiperidin-1-yl)methyl)-3-methylbenzylamino)isoindoline-1,3-dione] |
| < 200 | CCC1CCN(Cc2ccc(CNc3cccc4c3C(=O)N(C3CCC(=O)NC3=O)C4=O)cc2C)CC1 (stereo not shown) [Cpd 41, 2-(2,6-dioxopiperidin-3-yl)-4-(4-((4-ethylpiperidin-1-yl)methyl)-3-methylbenzylamino)isoindoline-1,3-dione] |
| < 200 | Cc1cc(CNc2cccc3c2C(=O)N(C2CCC(=O)NC2=O)C3=O)ccc1CN1CCC(C)(C)CC1 (stereo not shown) [Cpd 42, 4-(4-((4,4-dimethylpiperidin-1-yl)methyl)-3-methylbenzylamino)-2-(2,6-dioxopiperidin-3-yl)isoindoline-1,3-dione] |
| < 200 | Cc1cc(CNc2cccc3c2C(=O)N(C2CCC(=O)NC2=O)C3=O)ccc1CN1CCC(C(C)(C)C)CC1 (stereo not shown) [Cpd 43, 4-(4-((4-tert-butylpiperidin-1-yl)methyl)-3-methylbenzylamino)-2-(2,6-dioxopiperidin-3-yl)isoindoline-1,3-dione] |
| < 200 | Cc1cc(CNc2cccc3c2C(=O)N(C2CCC(=O)NC2=O)C3=O)ccc1CN1CCC2(CC1)CC2 (stereo not shown) [Cpd 44, 4-(4-(6-azaspiro[2.5]octan-6-ylmethyl)-3-methylbenzylamino)-2-(2,6-dioxopiperidin-3-yl)isoindoline-1,3-dione] |
| < 200 | Cc1cc(CNc2cccc3c2C(=O)N(C2CCC(=O)NC2=O)C3=O)ccc1CN1CCC(C(F)(F)F)CC1 (stereo not shown) [Cpd 45, 2-(2,6-dioxopiperidin-3-yl)-4-(3-methyl-4-((4-(trifluoromethyl)piperidin-1-yl)methyl)benzylamino)isoindoline-1,3-dione] |
| < 200 | Cc1cc(CNc2cccc3c2C(=O)N(C2CCC(=O)NC2=O)C3=O)ccc1CN1CCC2(CCC2)CC1 (stereo not shown) [Cpd 46, 4-(4-(7-azaspiro[3.5]nonan-7-ylmethyl)-3-methylbenzylamino)-2-(2,6-dioxopiperidin-3-yl)isoindoline-1,3-dione] |
| < 200 | Cc1cc(CNc2cccc3c2C(=O)N(C2CCC(=O)NC2=O)C3=O)ccc1CN1CCC2(CC1)CC(F)(F)C2 (stereo not shown) [Cpd 47, 4-(4-((2,2-difluoro-7-azaspiro[3.5]nonan-7-yl)methyl)-3-methylbenzylamino)-2-(2,6-dioxopiperidin-3-yl)isoindoline-1,3-dione] |
| 200 to 500 | Cc1cc(CNc2cccc3c2C(=O)N(C2CCC(=O)NC2=O)C3=O)ccc1CN1CCC(C(F)F)CC1 (stereo not shown) [Cpd 48, 4-(4-((4-(difluoromethyl)piperidin-1-yl)methyl)-3-methylbenzylamino)-2-(2,6-dioxopiperidin-3-yl)isoindoline-1,3-dione] |
| < 200 | Cc1cc(CNc2cccc3c2C(=O)N(C2CCC(=O)NC2=O)C3=O)ccc1CN1CCN(c2ccc(C(N)=O)nc2)CC1 (stereo not shown) [Cpd 49, 5-(4-(4-((2-(2,6-dioxopiperidin-3-yl)-1,3-dioxoisoindolin-4-ylamino)methyl)-2-methylbenzyl)piperazin-1-yl)picolinamide] |
| 200 to 500 | Cc1cc(CNc2cccc3c2C(=O)N(C2CCC(=O)NC2=O)C3=O)ccc1CN1CCN(c2ccc(F)cc2F)CC1 (stereo not shown) [Cpd 50, 4-(4-((4-(2,4-difluorophenyl)piperazin-1-yl)methyl)-3-methylbenzylamino)-2-(2,6-dioxopiperidin-3-yl)isoindoline-1,3-dione] |
| < 200 | Cc1cc(CNc2cccc3c2C(=O)N(C2CCC(=O)NC2=O)C3=O)ccc1CN1CC(c2ccc(C#N)cc2)C1 (stereo not shown) [Cpd 51, 4-(1-(4-((2-(2,6-dioxopiperidin-3-yl)-1,3-dioxoisoindolin-4-ylamino)methyl)-2-methylbenzyl)aetidin-3-yl)benzonitrile] |
| < 200 | Cc1cc(CNc2cccc3c2C(=O)N(C2CCC(=O)NC2=O)C3=O)ccc1CN1CC(c2cccc(C#N)c2)C1 (stereo not shown) [Cpd 52, 3-(1-(4-((2-(2,6-dioxopiperidin-3-yl)-1,3-dioxoisoindolin-4-ylamino)methyl)-2-mtehylbenzyl)azetidin-3-yl)benzonitrile] |
| < 200 | C[C@@H]1CN(c2ccc(C#N)cn2)CCN1Cc1ccc(CNc2cccc3c2C(=O)N(C2CCC(=O)NC2=O)C3=O)cc1 (stereo partly drawn) [Cpd 53, 6-((3R)-4-(4-((2-(2,6-dioxopiperidin-3-yl)-1,3-dioxoisoindolin-4-ylamino)methyl)benzyl)-3-methylpiperazin-1-yl)nicotinonitrile] |
| 200 to 500 | NC(=O)c1ccc(N2CCN(Cc3ccc(CNc4cccc5c4C(=O)N(C4CCC(=O)NC4=O)C5=O)cc3)CC2)nc1 (stereo not shown) [Cpd 54, 6-(4-(4-((2-(2,6-dioxopiperidin-3-yl)-1,3-dioxoisoindolin-4-ylamino)methyl)benzyl)piperazin-1-yl)nicotinamide] |
| 200 to 500 | CN(C)C(=O)c1ccc(N2CCN(Cc3ccc(CNc4cccc5c4C(=O)N(C4CCC(=O)NC4=O)C5=O)cc3)CC2)cn1 (stereo not shown) [Cpd 55, 5-(4-(4-((2-(2,6-dioxopiperidin-3-yl)-1,3-dioxoisoindolin-4-ylamino)methyl)benzyl)piperazin-1-yl)-N,N-dimethylpicolinamide] |

| SMILES | IC50 [nM] |
| --- | --- |
| COC1CC2CCC(C1)N2Cc1ccc(CNc2cccc3c2C(=O)N(C2CCC(=O)NC2=O)C3=O)cc1 [Cpd 35, 2-(2,6-dioxopiperidin-3-yl)-4-(4-(((1R,3r,5S)-3-methoxy-8-azabicyclo[3.2.1]octan-8-yl)methyl)benzylamino)isoindoline-1,3-dione] | 751 to 1000 |
| CC(C)(C)OC1CCN(Cc2ccc(CNc3cccc4c3C(=O)N(C3CCC(=O)NC3=O)C4=O)cc2)CC1 (stereo not shown) [Cpd 38, 4-(4-((4-tert-butoxypiperidin-1-yl)methyl)benzylamino)-2-(2,6-dioxopiperidin-3-yl)isoindoline-1,3-dione] | < 200 |
